# Measurements as given in patent publication US7375105B2, “Pyridine substituted furan derivatives as Raf kinase inhibitors” (SmithKline Beecham p.l.c., priority 2001, dated 2008).
# What was measured:
# human melanoma SKMEL3 = assay: Methylene blue growth inhibition assay (Assay 2), SKMEL3; format: cell-based; details: SK-MEL3, B-Raf V599E, Ras wt
# Description: (§1) Methylene Blue Growth Inhibition Assay (Assay 2)
# (§2) Normal human foreskin fibroblasts (HFF), human melanoma (A375P, SKMEL2, SKMEL3) colon carcinoma (Colo 205) were cultured in the following growth media: A375P, Colo 205, Roswell Park Memorial Institute (RPMI) 1640 (Life Technologies 22400-089) containing 10% fetal bovine serum (FBS); HFF, Dulbecco's modified Eagle Medium (DMEM) (Life Technologies 12320-032) containing 10% FBS; SKMEL2 and SKMEL3, Minimum Essential Medium (MEM, Life Technologies 11095-080) containing 1× non-essential amino acids (Life Technologies 11140-050) and 10% FBS. Cells were harvested using 0.25% trypsin/1 mM, EDTA, counted using a haemocytometer, and plated in 100 microliters of the appropriate media, at the following densities, in a 96-well tissue culture plate (Falcon 3075): HFF and A375P, 5,000 cells/well; all other cell lines, 10,000 cells/well. The next day, compounds were diluted in RPMI containing 100 micrograms/ml gentamicin, at twice the final required concentration, from 10 mM stock solutions in dimethyl sulphoxide (DMSO). One hundred microliters per well of these dilutions were added to the 100 microliters of media currently on the cell plates. RPMI containing 0.6% DMSO was added to control wells. […] Optical density at 620 nm was measured on a microplate reader. Percent inhibition of cell growth was calculated relative to vehicle treated control wells. […]
# [1] = test system: Human diploid foreskin fibroblasts (HFF); assay: XTT 72 hr growth inhibition (Assay 3), HFF; format: cell-based; details: Fibroblast, normal, B-Raf wt, Ras wt
# Description: (§3) XTT 72 Hr Growth Inhibition Protocol for Mammalian Cultured Cells (Assay 3)
# (§4) Human diploid foreskin fibroblasts (HFF) or human colon carcinoma (Colo 201) cells were grown in Dulbecco's modified Eagle's medium (DMEM) (Invitrogen/Life Technologies) containing 10% fetal bovine serum (FBS) and the antibiotics penicillin (100 Units/ml) and streotomycin (100 micrograms/ml) (Invitrogen/Life Technologies). Growth was at 37° C. in humidified 5% CO2 incubators in 75 cm^2 plastic flasks. Cells were harvested using 0.25% trypsin/1 mM ethylenediaminetetraacetic acid (EDTA), resuspended in growth medium, and counted using a hemocytometer. Flat-bottomed 96-well plates were seeded with 2×10^3 cells/well in a volume of 200 ul from trypsinized exponentially growing cultures. To “blank” wells, growth medium was added with no additions. Cells were incubated overnight to permit attachment.
# (§5) Next day, medium from wells that contained cells was replaced with 180 microliters of fresh medium. Appropriate dilutions of test compounds were added to the wells from stock solutions of compound dissolved in dimethyl sulfoxide (DMSO); final DMSO concentration in all wells was 0.2%. […] Absorbance at 450 nm was then determined using a 96-well UV plate reader (Molecular Devices). Under these conditions, absorbance of untreated control cells at 450 nm was at least 1.0 optical density unit/ml. […]
# human melanoma SKMEL2 = assay: Methylene blue growth inhibition assay (Assay 2), SKMEL2; format: cell-based; details: SK-MEL-2, B-Raf wt, [Q61R]N-Ras
# Description: as §1, §2
# B-Raf = B-Raf (Homo sapiens, UniProt P15056); assay: Fluorescence anisotropy kinase binding assay (Assay 1)
# Source text: Fluorescence Anisoptrophy Kinase Binding Assay
# The concentration of kinase enzyme should preferably be >1×Kf. The concentration of fluorescent ligand required will depend on the instrumentation used, and the fluorescent and physicochemical properties. The concentration used must be lower than the concentration of kinase enzyme, and preferably less than half the kinase enzyme concentration. A typical protocol is:
# All compounds are serially diluted in DMSO, then by a one step dilution into buffer of comparison, 50 mM HEPES, […] pH7.5, 1 mM CHAPS, 10 mM MgCL2, for the assay.
# B-Raf Enzyme concentration: 1 nM
# Fluorescent ligand concentration: 0.5 nM
# Test compound concentration: 0.5 nM-100 uM
# Components incubated in 10 ul final volume in LJL HE 384 type B black microtitre plate until equilibrium reached (Over 3 h, up to 30 h)
# Fluorescence anisotropy read in an LJL Acquest fluorescence reader.
# Definitions: Ki=dissociation constant for inhibitor binding
# • Kf=dissociation constant for fluorescent ligand binding
# The fluorescent ligand is the following compound:
# which is derived from 5-[2-(4-aminomethylphenyl)-5-pyridin-4-yl-1H-imidazol-4-yl]-2-chlorophenol and rhodamine green.
# [2] = test system: colon carcinoma (Colo 205); assay: Methylene blue growth inhibition assay (Assay 2), Colo205; format: cell-based; details: Homo sapiens, colorectal cancer, B-Raf V599E, Ras wt
# Description: as §1, §2
# [3] = test system: human colon carcinoma (Colo 201) cells; assay: XTT 72 hr growth inhibition (Assay 3), Colo201; format: cell-based; details: colorectal cancer, B-Raf ND, Ras ND
# Description: as §3, §4, §5
# human melanoma A375P = assay: Methylene blue growth inhibition assay (Assay 2), A375P; format: cell-based; details: B-Raf V599E, Ras wt
# Description: as §1, §2
# Sequence of B-Raf (P15056 whole entry): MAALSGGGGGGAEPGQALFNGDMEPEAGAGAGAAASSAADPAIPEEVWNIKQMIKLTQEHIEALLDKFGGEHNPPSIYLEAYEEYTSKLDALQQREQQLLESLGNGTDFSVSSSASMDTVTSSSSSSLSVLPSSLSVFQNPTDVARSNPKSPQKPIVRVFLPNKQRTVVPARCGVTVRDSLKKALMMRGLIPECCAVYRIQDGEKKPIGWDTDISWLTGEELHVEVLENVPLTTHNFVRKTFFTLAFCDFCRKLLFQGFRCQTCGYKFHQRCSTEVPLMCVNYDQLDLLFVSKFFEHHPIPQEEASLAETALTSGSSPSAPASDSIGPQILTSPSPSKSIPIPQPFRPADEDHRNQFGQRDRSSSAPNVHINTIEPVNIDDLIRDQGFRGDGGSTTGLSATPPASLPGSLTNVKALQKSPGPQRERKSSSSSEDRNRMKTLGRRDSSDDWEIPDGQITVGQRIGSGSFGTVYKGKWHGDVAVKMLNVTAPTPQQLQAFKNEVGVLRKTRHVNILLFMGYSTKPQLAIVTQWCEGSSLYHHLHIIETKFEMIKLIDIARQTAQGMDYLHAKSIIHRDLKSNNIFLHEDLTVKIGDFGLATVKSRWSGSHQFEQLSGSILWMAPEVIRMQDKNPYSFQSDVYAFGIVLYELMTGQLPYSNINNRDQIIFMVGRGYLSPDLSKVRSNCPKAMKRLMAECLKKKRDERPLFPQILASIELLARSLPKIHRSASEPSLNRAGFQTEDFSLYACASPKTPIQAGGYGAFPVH
compound,measurement,setting,value
"CC(C)(CN)c1cc(-c2ccncc2)c(-c2ccc(Cl)c(O)c2)o1 [Example 3, 5-[5-(2-Amino-1,1-dimethyl-ethyl)-3-pyridin-4-yl-furan-2-yl]-2-chloro-phenol]",IC50,human melanoma SKMEL3,1.4 µM
same,IC50,[1],22 µM
same,IC50,human melanoma SKMEL2,4.9 µM
same,Kd,B-Raf,5.5 nM
same,IC50,[2],7.9 µM
same,IC50,[3],8.5 µM
same,IC50,human melanoma A375P,1.8 µM
